Common to all, as to format: in vivo
Experiment [1] can be described thus: Experiment 6 sensory evaluation of cyclic dipeptides, “boosting of last flavor (aftertaste)”. In a few lines: (§1)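 Reduced-sodium curry roux (44 g in 300 g hot water) was spiked with cyclic dipeptide solutions matching heat-treated coriander or paprika levels, at 0.5% or 1.0% (w/w) final. Three evaluators scored each sample against unspiked reduced-sodium and common roux. Mean scores were graded F to AA.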

Experiment [2] is described as follows: Experiment 1 sensory evaluation of “boosting of flavor” (cyclic dipeptides, coriander). The conditions noted are these: for “boosting of flavor” in words: added to reduced-sodium curry roux dispersion, compared with no addition, unheated coriander or common curry roux; for “boosting of flavor” Average: cyclic dipeptide aqueous solution (concentration as in heat-treated coriander) at final 0.2% (w/w) in reduced-sodium curry roux dispersion, score 1-5; for “boosting of flavor” Evaluation: cyclic dipeptide aqueous solution at final 0.2% (w/w) in reduced-sodium curry roux dispersion, class of average score. As to the method:
Flour roux was prepared by putting 20 g of flour and 30 g of beef tallow in a pan, then heating with stirring at 120° C. To this flour roux were added 10 g of sodium chloride, 10 g of sugar, 10 g of cornstarch, 5 g of curry powder and 15 g of other seasoning ingredients (vegetable and fruit extracts, yeast extract and seafood extract), and after heat-treatment to 105° C., the mixture was cooled and solidified, to form a block of common curry roux.
The sodium chloride equivalent per 100 g of this curry roux was 10.6 g.
Reduced-sodium curry roux was prepared according to the same procedure, except that the amount of sodium chloride was reduced to 7 g from the amount in the common curry roux in (1).
The sodium chloride equivalent per 100 g of this reduced-sodium curry roux was 7.7 g.
Out of the cyclic dipeptides included in the heat-treated coriander prepared in 1.1. described above, which were confirmed to be increased in 1.2. above, an aqueous solution of the respective 14 cyclic dipeptides shown in the table described below was prepared. The concentration of the cyclic dipeptide in each aqueous solution was set to be equal to its concentration in the heat-treated coriander prepared in 1.1. described above, which was estimated from the ratio of the peak area of the cyclic dipeptide to the peak area of the internal standard (47 μg/g L-lysine-^13C6 monohydrochloride) confirmed in 1.2. described above.
Two dispersions of 44 g of the reduced-sodium curry roux in (2) dispersed in 300 g of hot water were prepared.
To one of them was added the heat-treated coriander or the powdered unheated coriander prepared in 1.1. described above, or the cyclic dipeptide aqueous solution (corresponding to the heat-treated coriander) prepared in (3) above, so that the final concentration was 0.2% (w/w), and a sensory evaluation was carried out.
Forty-four grams of the common curry roux in (1) was dispersed in 300 g of hot water.
The dispersion of reduced-sodium curry roux dispersed in hot water and the dispersion of common curry roux dispersed in hot water were used as comparative controls, and the strength of the flavor was evaluated by four evaluators on the basis of the following evaluation criteria from the viewpoint of “boosting of flavor.” The term “boosting of flavor” in this experiment is an effect concerted by the combination of sodium chloride and other foodstuffs in curry roux, and is an aspect of “saltiness.” Thus, the “flavor” in this experiment can be also expressed as “saltiness.”
The average of the evaluated scores was defined as “F” when it was 1.0 or lower, “C” when it was 1.1 or higher and 1.9 or lower, “B” when it was 2.0 or higher and 2.5 or lower, “A” when it was 2.6 or higher and 2.9 or lower, and “AA” when it was 3.0 or higher.

A short description of experiment [3]: Experiment 6 sensory evaluation of cyclic dipeptides, “middle fullness (enhanced thickness)”. The procedure, abridged:
as §1

Experiment [4] is described as follows: Experiment 6 sensory evaluation of cyclic dipeptides, “top sharp saltiness”. In a few lines:
as §1

[5] abbreviates: Additive amount coriander 0.5%, reduced-sodium curry roux.
[6] abbreviates: heat-treated coriander equivalent aqueous solution of cyclic dipeptide, final 1.0% (w/w) in reduced-sodium curry roux dispersion.
Setting [7] is: heat-treated coriander equivalent aqueous solution of cyclic dipeptide, final 1.0% (w/w) in reduced-sodium curry roux dispersion, 3 evaluators.
[8] abbreviates: Additive amount coriander 0.5% (heat-treated coriander equivalent aqueous solution, final 0.5% (w/w)), reduced-sodium curry roux.
Where [9] appears, read: Additive amount paprika 0.5%, reduced-sodium curry roux.
Where [10] appears, read: heat-treated paprika equivalent aqueous solution of cyclic dipeptide, final 1.0% (w/w) in reduced-sodium curry roux dispersion.
Where [11] appears, read: heat-treated paprika equivalent aqueous solution of cyclic dipeptide, final 1.0% (w/w) in reduced-sodium curry roux dispersion, 3 evaluators.
[12] abbreviates: Additive amount paprika 0.5% (heat-treated paprika equivalent aqueous solution, final 0.5% (w/w)), reduced-sodium curry roux.

As to cyclic (Phe-Ala) [Coriander ID 33], the “Bosting of last flavor Average” value in experiment [1] (setting [5]) and in experiment [1] (setting [7]) was 2.5 points throughout. The “Bosting of last flavor Evaluation” value is “B (“B” when it was 2.0 or higher and 2.5 or lower)” in experiment [1] (setting [5]); “B (“B” when it was 2.0 or higher and 2.5 or lower)” in experiment [1] (setting [6]). The ““boosting of flavor” in words” value in experiment [2] is on record as “comparable flavor to that of the dispersion of common curry roux”. The ““boosting of flavor” Average” value in experiment [2] amounted to 3.0 points. In experiment [2], the ““boosting of flavor” Evaluation” value is “AA (“AA” when it was 3.0 or higher)”. Besides, the “Middle fullness Average” value in experiment [3] (setting [5]) and in experiment [3] (setting [7]) was 2.5 points each time. Also, the “Middle fullness Evaluation” value in experiment [3] (setting [5]) is “B (“B” when it was 2.0 or higher and 2.5 or lower)”; in experiment [3] (setting [6]) it was “B (“B” when it was 2.0 or higher and 2.5 or lower)”. Moreover, the “Top sharp saltiness Average” value is 2.3 points in experiment [4] (setting [8]) and 2.0 points in experiment [4] (setting [7]). In addition, the “Top sharp saltiness Evaluation” value in experiment [4] (setting [5]) was “B (“B” when it was 2.0 or higher and 2.5 or lower)”; in experiment [4] (setting [6]), “B (“B” when it was 2.0 or higher and 2.5 or lower)”.
Take cyclic (Phe-Pro) [Coriander ID 40]: the “Bosting of last flavor Average” value was 2.3 points in experiment [1] (setting [9]) and 3.0 points in experiment [1] (setting [11]). The “Bosting of last flavor Evaluation” value in experiment [1] (setting [9]) was “B (“B” when it was 2.0 or higher and 2.5 or lower)”; in experiment [1] (setting [10]) it was “AA (“AA” when it was 3.0 or higher)”. In addition, the ““boosting of flavor” Average” value in experiment [2] is recorded as 2.8 points. Moreover, in experiment [2], the ““boosting of flavor” Evaluation” value was “A (“A” when it was 2.6 or higher and 2.9 or lower)”. For the same substance, the “Middle fullness Average” value in experiment [3] (setting [9]) came to 2.3 points; in experiment [3] (setting [11]), 3.2 points. The “Middle fullness Evaluation” value in experiment [3] (setting [9]) was “B (“B” when it was 2.0 or higher and 2.5 or lower)”; in experiment [3] (setting [10]), “AA (“AA” when it was 3.0 or higher)”. Moreover, the results for the “Top sharp saltiness Average” value in experiment [4] (setting [12]) and in experiment [4] (setting [11]) were 2.5 points and 2.7 points, respectively. In addition, the “Top sharp saltiness Evaluation” value in experiment [4] (setting [9]) was “B (“B” when it was 2.0 or higher and 2.5 or lower)”; in experiment [4] (setting [10]) it was “A (“A” when it was 2.6 or higher and 2.9 or lower)”.
For the substance cyclic (Pro-His) [Coriander ID 15], the “Bosting of last flavor Average” value in experiment [1] (setting [5]) was 2.5 points; in experiment [1] (setting [7]), 3.0 points. In addition, the “Bosting of last flavor Evaluation” value in experiment [1] (setting [5]) was “B (“B” when it was 2.0 or higher and 2.5 or lower)”; in experiment [1] (setting [6]), “AA (“AA” when it was 3.0 or higher)”. Moreover, the ““boosting of flavor” in words” value in experiment [2] was “comparable flavor to that of the dispersion of common curry roux”. The ““boosting of flavor” Average” value in experiment [2] worked out at 3.0 points. The ““boosting of flavor” Evaluation” value in experiment [2] is given as “AA (“AA” when it was 3.0 or higher)”. Moreover, the “Middle fullness Average” value worked out at 2.5 points in experiment [3] (setting [5]) and 3.0 points in experiment [3] (setting [7]). Also, the “Middle fullness Evaluation” value was “B (“B” when it was 2.0 or higher and 2.5 or lower)” in experiment [3] (setting [5]); “AA (“AA” when it was 3.0 or higher)” in experiment [3] (setting [6]). The “Top sharp saltiness Average” value is 2.2 points in experiment [4] (setting [8]) and 2.0 points in experiment [4] (setting [7]). Further, the “Top sharp saltiness Evaluation” value in experiment [4] (setting [5]) was “B (“B” when it was 2.0 or higher and 2.5 or lower)”; in experiment [4] (setting [6]), “B (“B” when it was 2.0 or higher and 2.5 or lower)”.
Take cyclic (Pro-Met) [Coriander ID 53]: the “Bosting of last flavor Average” value was 3.0 points in experiment [1] (setting [5]) and 3.8 points in experiment [1] (setting [7]). In addition, the “Bosting of last flavor Evaluation” value in experiment [1] (setting [5]) and in experiment [1] (setting [6]) was “AA (“AA” when it was 3.0 or higher)” in each case. For the same substance, the ““boosting of flavor” Average” value in experiment [2] was determined as 2.3 points. In experiment [2], the ““boosting of flavor” Evaluation” value was “B (“B” when it was 2.0 or higher and 2.5 or lower)”. Moreover, the figures for the “Middle fullness Average” value in experiment [3] (setting [5]) and in experiment [3] (setting [7]) were 3.2 points and 3.0 points, respectively. Also, the “Middle fullness Evaluation” value in experiment [3] (setting [5]) and in experiment [3] (setting [6]) was “AA (“AA” when it was 3.0 or higher)” in each case. The “Top sharp saltiness Average” value in experiment [4] (setting [8]) and in experiment [4] (setting [7]) was 3.0 points in each case. For the same substance, the “Top sharp saltiness Evaluation” value in experiment [4] (setting [5]) and in experiment [4] (setting [6]) was “AA (“AA” when it was 3.0 or higher)” each time.
On to cyclic (Pro-Val) [Coriander ID 29], for which the entries for the “Bosting of last flavor Average” value in experiment [1] (setting [9]) and in experiment [1] (setting [11]) were 2.2 points and 2.3 points, respectively. In addition, the “Bosting of last flavor Evaluation” value in experiment [1] (setting [9]) was “B (“B” when it was 2.0 or higher and 2.5 or lower)”; in experiment [1] (setting [10]), “B (“B” when it was 2.0 or higher and 2.5 or lower)”. For the same substance, the ““boosting of flavor” in words” value in experiment [2] is “comparable flavor to that of the dispersion of common curry roux”. Further, the ““boosting of flavor” Average” value in experiment [2] came to 3.0 points. In experiment [2], the ““boosting of flavor” Evaluation” value is given as “AA (“AA” when it was 3.0 or higher)”. The “Middle fullness Average” value in experiment [3] (setting [9]) and in experiment [3] (setting [11]) was 2.3 points throughout. The “Middle fullness Evaluation” value in experiment [3] (setting [9]) is “B (“B” when it was 2.0 or higher and 2.5 or lower)”; in experiment [3] (setting [10]), “B (“B” when it was 2.0 or higher and 2.5 or lower)”. The entries for the “Top sharp saltiness Average” value in experiment [4] (setting [12]) and in experiment [4] (setting [11]) were 2.5 points and 2.2 points, respectively. Moreover, the “Top sharp saltiness Evaluation” value in experiment [4] (setting [9]) was “B (“B” when it was 2.0 or higher and 2.5 or lower)”; in experiment [4] (setting [10]), “B (“B” when it was 2.0 or higher and 2.5 or lower)”.
In the case of cyclic (Thr-Pro) [Coriander ID 14], the “Bosting of last flavor Average” value in experiment [1] (setting [9]) turned out to be 2.2 points; in experiment [1] (setting [11]), 2.5 points. In addition, the “Bosting of last flavor Evaluation” value was “B (“B” when it was 2.0 or higher and 2.5 or lower)” in experiment [1] (setting [9]); “B (“B” when it was 2.0 or higher and 2.5 or lower)” in experiment [1] (setting [10]). Further, the ““boosting of flavor” in words” value in experiment [2] is given as “comparable flavor to that of the dispersion of common curry roux”. In experiment [2], the ““boosting of flavor” Average” value came out at 3.3 points. Besides, the ““boosting of flavor” Evaluation” value in experiment [2] is given as “AA (“AA” when it was 3.0 or higher)”. For the same substance, the “Middle fullness Average” value stood at 2.0 points in experiment [3] (setting [9]) and 2.5 points in experiment [3] (setting [11]). For the same substance, the “Middle fullness Evaluation” value in experiment [3] (setting [9]) was “B (“B” when it was 2.0 or higher and 2.5 or lower)”; in experiment [3] (setting [10]) it was “B (“B” when it was 2.0 or higher and 2.5 or lower)”. For the same substance, the results for the “Top sharp saltiness Average” value in experiment [4] (setting [12]) and in experiment [4] (setting [11]) were 2.2 points and 2.0 points, respectively. The “Top sharp saltiness Evaluation” value in experiment [4] (setting [9]) was “B (“B” when it was 2.0 or higher and 2.5 or lower)”; in experiment [4] (setting [10]), “B (“B” when it was 2.0 or higher and 2.5 or lower)”.
